Assay results: patent publication US20220354974A1, “REAGENTS AND METHODS FOR LABELING MOLECULES WITH ASTATINE ISOTOPES IN HIGHER OXIDATION STATES” (priority 2021, published 2022)

Experiment: Stability in solution of 211At-labeling products of biotin-sarcosine-bis-B10 by radio-HPLC
Type: physicochemical
Method: FIGS. 22A-22D compare radio-HPLC chromatograms of reaction product from ^211At labeling of Compound 8 (see FIG. 21): 0.1 mg of Compound 8 was reacted with ^211At in 5% HOAc in MeOH/H2O without ChT at room temperature for 5 min (22A) and the reaction mixture sat at room temperature for about 1 h (22B); and 0.1 mg of Compound 8 was reacted with ^211At in 5% HOAc in MeOH/H2O with 10 μg of ChT at room temperature for 3 min. (22C) the reaction mixture after setting at room temperature for about 2 h (22D).
In an ^211At-labeling reaction with biotin-sarcosine-bis-B10, 8, a solution of [^211At]NaAt in 5% HOAc in MeOH/H2O was reacted at room temperature for 5 min without an oxidant. The reaction was quenched with 10 μL of 1 mg/mL Na2S2O5 (a reductant). The reaction provided one major ^211At labeled product (95%) as shown the radio-HPLC peak at about 10.1 min (FIG. 22A). […] In another ^211At-labeling reaction, the same reaction conditions as above were used except a chemical oxidant chloramine-T (ChT) was added to the reaction solution. The reaction with ChT provided multiple products that were eluted from 9-11 min. After sitting at room temperature for 2 h, a significant amount of free ^211At was observed (29%) (FIG. 22D).

free 211At observed (labeled with ChT, after sitting at room temperature for 2 h): 29% | change in 211At-labeled product in solution (labeled without oxidant, quenched, 1 h at room temperature): No change
Substance: 3,5-B10H9-dioxa-Ph-Sar-Biotin [Compound 8]
